Assay results as given in patent publication US20250345469A1, “COMPOSITION COMPRISING A RAPALOG AND A RADIOLABELLED GASTRIN ANALOGUE, IN PARTICULAR FOR USE IN THE TREATMENT AND/OR DIAGNOSIS OF CCKB RECEPTOR POSITIVE CANCER OR TUMORS” (Paul Scherrer Institut, priority 2020, published 2025).
Read-outs that look alike come from different tables or passages of the source.

Key:
A431/CCKBR cells [1] = experiment: Proliferation assay (CellTiter 96 AQueous, MTS); type: cell-based, human; conditions: 10 μM kinase inhibitor; FIG. 1C
Description: Cells were seeded in 96-well plates before treatment as described above, and cell proliferation was analyzed by a CellTiter 96 AQueous Non-Radioactive Cell Proliferation Assay (Promega) according to the manufacturer's instructions. Absorbance of MTS bio-reduced into a formazan was measured at 570 nm with a reference of 650 nm using a MicroPlate Reader (PerkinElmer). The assay was performed in triplicate.

A431/CCKBR cells [2] = experiment: In vitro radiolabelled peptide internalization assay; type: cell-based, human; conditions: for Protein levels as compared to control: A431/CCKBR cell lysates, 20 h treatment, FIG. 2B; for membrane bound activity: treated vs control cells, FIG. 2A
Description: (§1) 2.5×10^5 cells were seeded on 6-well plates. Eight hours later cells were treated with appropriate inhibitors (as indicated) for 20 h. […] After 1 or 2 h incubation, radioactive medium (together with PBS wash) was collected and the cells were subjected to 2× wash with glycine buffer (pH=2) for 5 min at RT followed by a dissolving step in 1 M NaOH for 15 min at 37° C. […] Protein concentration of NaOH-dissolved cell lysates was measured by spectrophotometry using a NanoPhotometer® UV-Vis P-Class (Implen).

AR42J cells = experiment: as above; type: cell-based, rat; conditions: AR42J cell lysates, FIG. 2B
Description: as §1

[3] = tested on: mTORC1-regulated phosphorylation of ribosomal protein S6 at Ser235/236; experiment: WB analysis of phospho-S6 (mTORC1 activity); type: cell-based, human; conditions: A431/CCKBR cells, 20 h treatment, FIG. 2C
Description: The inhibitor activity of the rapamycin and/or rapalog towards mTORC1 can be determined by measuring the level of phosphorylation of ribosomal protein S6 by Western Blot analysis as described further below.
(§2) Antibodies against phospho-S6 at S235/S236 (D57.2.2F) and GAPDH (14C10) were obtained from Cell Signaling Technology, whereas anti-CCKBR (ab77077) was from Abcam. Cells were homogenized in lysis buffer (50 mM Tris-HCl pH 7.5, 150 mM NaCl, 1% Triton X, 0.1% SDS supplemented with 1 mM sodium orthovanadate, 1 mM NaF and protease inhibitor cocktail (Roche)). Aliquots of 50 μg protein extracts were separated by SDS-PAGE and transferred to PVDF membranes (Millipore) by electroblotting. Membranes were blocked with 5% skim milk in TBST (0.1% Tween 20) for 1 h, and incubated with 2% BSA in TBST overnight with the primary antibody followed by 2 h incubation with HRP-conjugated secondary antibody. Protein-specific signals were detected by a chemiluminescence reagent (ECL) and signals were acquired by using ImageQuant RT ECL Imager (GE Healthcare).

CCKBR = experiment: WB analysis of CCKBR expression in deglycosylated lysates; type: cell-based, human; conditions: 50 nM or 100 nM RAD001, 20 h, A431/CCKBR cells
Description: For CCKBR-specific knock-down, duplex siRNAs against CCKBR or control duplex against luciferase (Microsynth) were used at a final concentration of 100 nM in Optimem (Gibco): CCKBRseq1 sense RNA 5′-[…]dTdT-3′(SEQ ID NO:5), CCKBRseq2 sense RNA 5′-[…]dTdT-3′(SEQ ID NO:6) and control sense RNA 5′-[…]dTdT-3′(SEQ ID NO:7). Cells at 60-80% confluence were transfected with siRNAs by using Lipofectamin 3000 according to the user's manual. Total protein lysates were subjected to WB analysis.
as §2, with “Healthcare). […]” for “Healthcare).”

A431/CCKBR tumors = experiment: Immunochemistry (HE and Ki67 staining) of tumor sections; type: in vivo, mouse; conditions: five daily doses; for necrosis (percent of necrotic area): PBS-treated tumors 1.4±1.2%; for mitotic index: control 1.08±0.2%; for Ki67 positive cells: control 80±3.1%
Description: Paraffin sections of formalin-fixed A431/CCKBR tumors were subjected to deparaffinization. Rehydrated slides were pretreated in 10 mM citrate buffer, pH 6.0, at 98° C. for 60 minutes, followed by incubation with 4% fat-free milk in PBS for 90 minutes. For avidin/biotin blocker treatment (Invitrogen) and detection, the ABC method was used according to the manufacturer's instructions. For monoclonal antibody against Ki67 (Thermo Scientific, SP6) signals were recorded using an automated instrument reagent system (Discovery XT, Ventana Medical System Inc.) according to the user manual. Images of hematoxylin-counterstained sections were captured (Nikon, YTHM) and analyzed using ImageAccess Enterprise7 and ImageJ software (Schneider et al. Nat Methods 2012, 9(7), 671-675).
Paraffin tumor sections prepared from A431/CCKBR-tumor bearing nude mice treated with five daily doses of RAD001, metformin and PBS (control) were subjected to immunohistochemistry. RAD001 and PBS group includes 5 tumors, while in metformin group 4 tumors were analyzed.

[4] = tested on: A431/CCKBR-tumor bearing nude mice; experiment: Animal therapeutic study: tumor growth and survival; type: in vivo, mouse; conditions: for average tumor size on day 13: control 0.97 cm^3; for Median Survival: control 19.5
Description: For the animal study, human epidermoid carcinoma A431 cell line, which overexpresses CCKBR, was generated previously and kindly provided by Dr. Luigi Aloj. A431/CCKBR cells were cultured in DMEM, supplemented with 10% FCS, 2 mM glutamine and antibiotics (0.1 mg/mL streptomycin, 100 IU penicillin) at 37° C. and 5% CO2. […] RAD001 (3 mg/kg), or PBS (control) were administered via intraperitoneal injection daily for 5 or 10 days, as indicated. […] The tumor diameters and mice weight were recorded daily. The tumor volume was calculated by using the formula V=(W2×L)/2. The nude mice were sacrificed when the tumor volume exceeded 1.5 cm^3. […] These mice were excluded from the analysis.
In this experiment, GraphPad Prism 7.00 for Windows was used for all statistical analysis. One-way ANOVA combined with two-stage linear step-up procedure of Benjamini, Krieger and Yekutieli for multiple comparison test was used for all treated groups. Log-rank (Mantel-Cox) test was performed to compare different survival curves of the treatment groups with the control group. Endpoints were defined as death in the survival curves. Values of P≤0.05 were considered statistically significant.

A431/CCKBR xenograft [5] = experiment: Biodistribution study in A431/CCKBR xenograft mouse model; conditions: three daily doses, FIG. 7B
Description: (§3) Immunocompromised CD-1 female nude mice (Charles Rivers, Germany) were housed one week before experimentation. Prior to tumor implantation, A431/CCKBR cells were harvested and 5 min cells in 0.1 mL of sterile phosphate-buffered saline (PBS) containing 0.9% NaCl were injected subcutaneously (two tumors per animal) into mice anesthetized by isoflurane/oxygen inhalation. After 5 days, animals were randomly distributed into 3 experimental groups and tumor size was measured non-invasively with a caliper. RAD001 (3 mg/kg), metformin (200 mg/kg) or PBS (control) were administered daily via intraperitoneal injection for 3 or 5 consecutive days, as indicated. […] Post mortem dissected tumors and organs were weighed and their activity was measured in a gamma counter.
(§4) To investigate the effects of RAD001 and metformin in vivo, A431/CCKBR cells were implanted subcutaneously into immunocompromised nude mice, and 5 days later after tumor formation, mice were subjected to treatment with RAD001, metformin or PBS (control) as described above.

A431/CCKBR xenograft [6] = conditions: in vivo
Description: as §3, §4

Structure (SMILES)	changes in cell proliferation (A431/CCKBR cells [1])	Protein levels as compared to control (A431/CCKBR cells [2]) [%]	membrane bound activity (A431/CCKBR cells [2])	Protein levels as compared to control (AR42J cells) [%]	phosphorylation of ribosomal protein S6 at Ser235/236 [3]	increase of the CCKBR expression (CCKBR)	necrosis (percent of necrotic area) (A431/CCKBR tumors)	mitotic index (A431/CCKBR tumors)	Ki67 positive cells (A431/CCKBR tumors)	average tumor size on day 13 ([4]; 5 doses of RAD001 (3 mg/kg i.p. daily)) [cm^3]	average tumor size on day 13 ([4]; 10 doses of RAD001 (3 mg/kg i.p. daily)) [cm^3]	Median Survival ([4]; RAD001 5x) [days]	Median Survival ([4]; RAD001 10x) [days]	tumor growth ([4]; vs control, FIG. 10B)	mouse weight (A431/CCKBR xenograft [5])	tumor volume (A431/CCKBR xenograft [5])	mouse weight (A431/CCKBR xenograft [6])
O=C(O)c1ccc2nc(-c3ccccc3)c(-c3ccccc3)nc2c1 [BML257]	did not show significant changes in cell proliferation																
CO[C@H]1C[C@@H]2CC[C@@H](C)[C@@](O)(O2)C(=O)C(=O)N2CCCC[C@H]2C(=O)O[C@H]([C@H](C)C[C@@H]2CC[C@@H](OCCO)[C@H](OC)C2)CC(=O)[C@H](C)/C=C(\C)[C@@H](O)[C@@H](OC)C(=O)[C@H](C)C[C@H](C)/C=C/C=C/C=C/1C [RAD001, Everolimus]		80	no significant difference in membrane bound activity	84	lack of mTORC1-regulated phosphorylation of ribosomal protein S6 at Ser235/236	approximately 2.2 fold	10.6±6.4%	0.75±0.36%	61±8.6%	0.31	0.11	27	32	significantly inhibited tumor growth	without influencing overall mouse weight	significantly reduced tumor volumes	
CN(C)C(=N)N=C(N)N [metformin]		79	no significant difference in membrane bound activity		lack of mTORC1-regulated phosphorylation of ribosomal protein S6 at Ser235/236		did not show significant difference	did not cause significant change	did not cause significant change							no effect on tumor volume or mouse weight	no effect on tumor volume or mouse weight
CO[C@H]1C[C@@H]2CC[C@@H](C)[C@@](O)(O2)C(=O)C(=O)N2CCCC[C@H]2C(=O)O[C@H]([C@H](C)C[C@@H]2CC[C@@H](O)[C@H](OC)C2)CC(=O)[C@H](C)/C=C(\C)[C@@H](O)[C@@H](OC)C(=O)[C@H](C)C[C@H](C)/C=C/C=C/C=C/1C [rapamycin]	did not show significant changes in cell proliferation																
